Test results reported in US4840935A, “Peptide amino-alcohol derivatives containing a tetrasubstituted carbon atom, inhibiting renin and acid proteases, process for obtention and therapeutical use” (Sanofi, priority 1985, dated 1989).
Square brackets hold non-standard residues; d marks the D form. Peptide text beside a SMILES is read from it. * marks the point of attachment. ξ: configuration not given here. Propanoyl(3-(3-pyridyl)) = O=C(CCc1cccnc1)*; His(τ-Me) = Cn1cnc(C[C@H](N)C(=O)O)c1; Sta = CC(C)C[C@H](N)[C@@H](O)CC(=O)O; NHC(Me)(CH2OH)2 = CC(CO)(CO)N*; NHC(CH2OH)3 = OCC(CO)(CO)N*; ξ3Pal = NC(Cc1cccnc1)C(=O)O; Isovaleryl = CC(C)CC(=O)*; Nle = CCCC[C@H](N)C(=O)O; Boc = CC(C)(C)OC(=O)*; X2 = OCC1(N*)CCCCC1; X1 = CC(C)(CO)N*

Biological target: T1, human plasma renin activity (PRA) (Homo sapiens, UniProt P00797)
T1 construct: from tissue; host or cells: human plasma pool
T1 sequence (P00797 67-406): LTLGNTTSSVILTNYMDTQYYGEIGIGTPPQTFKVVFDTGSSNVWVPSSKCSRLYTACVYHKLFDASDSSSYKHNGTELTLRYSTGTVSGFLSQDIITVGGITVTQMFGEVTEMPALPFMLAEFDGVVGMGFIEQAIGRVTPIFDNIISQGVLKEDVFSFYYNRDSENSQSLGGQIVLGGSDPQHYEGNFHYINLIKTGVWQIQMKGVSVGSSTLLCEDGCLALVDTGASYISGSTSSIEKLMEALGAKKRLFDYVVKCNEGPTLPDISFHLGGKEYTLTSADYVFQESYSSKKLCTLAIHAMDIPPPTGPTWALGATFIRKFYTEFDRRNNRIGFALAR
Test: Inhibition of human plasma renin activity (PRA), angiotensin I released measured by radioimmunoassay
Assay type: biochemical
Conditions: human plasma pool, 60 minutes at 37° C., phosphate buffer pH 7.4; IC50 evaluated in mol, expressed as -log IC50
Method: The products according to the invention were studied for their therapeutic properties and especially their inhibitory action on enzymes. More particularly, the compounds were evaluated "in vitro" in terms of their inhibition of human plasma renin activity (PRA).
The method of evaluation is based on that of GUYENE (J. Clin. Endocrinol. Metab., 1976, 43, 1301). The inhibition of PRA is evaluated from a human plasma pool rich in renin ([…] of angiotensin I released per milliliter per hour), incubated for 60 minutes at 37° C., in a phosphate buffer at pH 7.4, in the presence of increasing concentrations of the product to be studied.
Human plasma contains the substrate angiotensinogen and the enzyme:renin. The angiotensin I released during the reaction is measured by radioimmunoassay: Plasma Renin Activity Kit from Travenol (nos. CA 533, 553). An inhibitor of the conversion enzyme, phenylmethylsulfonyl fluoride (PMSF), is added to the incubation medium. The total incubation volume is 555 microliters made up as follows:
420 microliters of human plasma
11 to 50 microliters of the product to be studied, at variable concentrations
119 to 80 microliters of phosphate buffer 5 microliters of PMSF.
A 1N solution of acetic acid in methanol (19/1 by volume) and a 1N solution of sodium hydroxide in methanol (2/1 by volume) are prepared. In a mixture of equal volumes of these 2 solutions, a 0.001M stock solution of the product to be studied is prepared. The subsequent dilutions are then made up in the phosphate buffer.
The results are expressed as their logarithmic value (-log IC50).

SMILES	IC50 [nM]
CCCC[C@H](NC(=O)[C@H](Cc1ccccc1)NC(=O)OC(C)(C)C)C(=O)N[C@@H](Cc1ccccc1)[C@@H](O)CC(=O)N[C@H](C(=O)NC(CO)(CO)CO)[C@@H](C)CC [SR 43 576]	3.98
CCCC[C@H](NC(=O)[C@H](Cc1ccccc1)NC(=O)OC(C)(C)C)C(=O)N[C@@H](CC(C)C)[C@@H](O)CC(=O)N[C@H](C(=O)NC(C)(C)CO)[C@@H](C)CC [SR 43 686] (Boc-F[Nle][Sta]I-X1)	6.03
CCCC[C@H](NC(=O)[C@H](Cc1ccccc1)NC(=O)CCc1cccnc1)C(=O)N[C@@H](CC(C)C)[C@@H](O)CC(=O)N[C@H](C(=O)NC(C)(CO)CO)[C@@H](C)CC [SR 43 707] ({Propanoyl(3-(3-pyridyl))}-F[Nle][Sta]I-{NHC(Me)(CH2OH)2})	3.55
CC[C@H](C)[C@H](NC(=O)C[C@H](O)[C@H](CC(C)C)NC(=O)[C@H](Cc1c[nH]cn1)NC(=O)[C@H](Cc1ccccc1)NC(=O)CCc1cccnc1)C(=O)NC(C)(CO)CO [SR 43 737] ({Propanoyl(3-(3-pyridyl))}-FH[Sta]I-{NHC(Me)(CH2OH)2})	2.14
CCCC[C@H](NC(=O)[C@H](Cc1ccccc1)NC(=O)OC(C)(C)C)C(=O)N[C@@H](CC(C)C)[C@@H](O)CC(=O)N[C@H](C(=O)NC1(CO)CCCCC1)[C@@H](C)CC [SR 43 799] (Boc-F[Nle][Sta]I-X2)	5.5
CC[C@H](C)[C@H](NC(=O)C[C@H](O)[C@H](CC1CCCCC1)NC(=O)[C@H](Cc1nc2ccccc2[nH]1)NC(=O)[C@H](Cc1ccccc1)NC(=O)OC(C)(C)C)C(=O)NC(C)(CO)CO [SR 44 125]	36.3

The next lines start with the values.

IC50 [nM]	SMILES
77.6	CC[C@H](C)[C@H](NC(=O)C[C@H](O)[C@H](CC(C)C)NC(=O)C(Cc1cccnc1)NC(=O)[C@H](Cc1ccccc1)NC(=O)OC(C)(C)C)C(=O)NC(C)(CO)CO (some centres unmarked) [SR 43 763] (Boc-F[ξ3Pal][Sta]I-{NHC(Me)(CH2OH)2})
33.1	CCCC[C@H](NC(=O)[C@H](Cc1ccccc1)NC(=O)OC(C)(C)C)C(=O)N[C@@H](CC(C)C)[C@@H](O)CC(=O)N[C@@H](C)C(=O)NC(C)(C)CO [SR 43 860] (Boc-F[Nle][Sta]A-X1)
19.1	CC[C@H](C)[C@H](NC(=O)C[C@H](O)[C@H](CC(C)C)NC(=O)[C@H](Cc1cn(C)cn1)NC(=O)[C@H](Cc1ccccc1)NC(=O)CCc1cccnc1)C(=O)NC(C)(C)CO [SR 43 966] ({Propanoyl(3-(3-pyridyl))}-F[His(τ-Me)][Sta]I-X1)
18.2	CCCC[C@H](NC(=O)[C@H](Cc1ccccc1)NC(=O)OC(C)(C)C)C(=O)N[C@@H](CC(C)C)[C@@H](O)CC(=O)N[C@H](C(=O)NC(CO)(CO)CO)[C@@H](C)CC [SR 44 094] (Boc-F[Nle][Sta]I-{NHC(CH2OH)3})
7.76	CCCC[C@H](NC(=O)[C@H](Cc1ccccc1)NC(=O)OC(C)(C)C)C(=O)N[C@@H](CC1CCCCC1)[C@@H](O)CC(=O)N[C@H](C(=O)NC(C)(CO)CO)[C@@H](C)CC [SR 43 721]
2.63	CCCC[C@H](NC(=O)[C@H](Cc1ccccc1)NC(=O)OC(C)(C)C)C(=O)N[C@@H](CC(C)C)[C@@H](O)CC(=O)N[C@H](C(=O)NC(C)(CO)CO)[C@@H](C)CC [SR 43 574] (Boc-F[Nle][Sta]I-{NHC(Me)(CH2OH)2})
0.479	CCCC[C@H](NC(=O)[C@H](Cc1ccccc1)NC(=O)CCc1cccnc1)C(=O)N[C@@H](Cc1ccccc1)[C@@H](O)CC(=O)N[C@H](C(=O)NC(CO)(CO)CO)[C@@H](C)CC [SR 43 603]

Biological target: T2, renin (Homo sapiens, UniProt P00797)
T2 sequence (P00797 67-406): T1 sequence (P00797 67-406)
Test: not given
Conditions: cited from earlier work

SMILES	affinity for renin
CC(C)CC(=O)N[C@H](C(=O)N[C@H](C(=O)N[C@@H](CC(C)C)[C@@H](O)CC(=O)N[C@@H](C)C(=O)N[C@@H](CC(C)C)[C@@H](O)CC(=O)O)C(C)C)C(C)C [Pepstatin, isovaleryl-L-valyl-L-valyl-statyl-L-alanyl-statin] (Isovaleryl-VV[Sta]A[Sta]-OH)	low affinity for renin
